In patent publication US9617226B2 (AbbVie Deutschland GmbH & Co. KG, priority 2014, dated 2017):

Legend:
[1] = target: human vasopressin V1a receptor (Homo sapiens (Human), UniProt P37288); experiment: Vasopressin V1a receptor binding assay; conditions: selectivity quotient, human V1a vs human V1b
Method: The test substances were dissolved in a concentration of 5 mM M in DMSO. Further dilution of these DMSO solutions took place as described for V1b.
The membrane pellet was again homogenized in a High-Pressure-Homogenizer, Polytec 50K at 1500 PSI (Heinemann, Germany) and subsequently taken up in 50 mM Tris-HCl, pH 7.4, homogenized and stored in aliquots frozen in liquid nitrogen at −190° C.
The incubation buffer was: 50 mM Tris, 10 mM MgCl2, 0.1% BSA, pH 7.4.
Duplicate determinations were carried out.
After incubation (60 minutes at room temperature), the samples were processed as described for V1b.
The binding parameters were calculated by nonlinear regression in SAS.

[2] = target: human vasopressin V1b receptor (Homo sapiens (Human), UniProt P47901); experiment: biochemical
Chain of human vasopressin V1b receptor (P47901 whole entry): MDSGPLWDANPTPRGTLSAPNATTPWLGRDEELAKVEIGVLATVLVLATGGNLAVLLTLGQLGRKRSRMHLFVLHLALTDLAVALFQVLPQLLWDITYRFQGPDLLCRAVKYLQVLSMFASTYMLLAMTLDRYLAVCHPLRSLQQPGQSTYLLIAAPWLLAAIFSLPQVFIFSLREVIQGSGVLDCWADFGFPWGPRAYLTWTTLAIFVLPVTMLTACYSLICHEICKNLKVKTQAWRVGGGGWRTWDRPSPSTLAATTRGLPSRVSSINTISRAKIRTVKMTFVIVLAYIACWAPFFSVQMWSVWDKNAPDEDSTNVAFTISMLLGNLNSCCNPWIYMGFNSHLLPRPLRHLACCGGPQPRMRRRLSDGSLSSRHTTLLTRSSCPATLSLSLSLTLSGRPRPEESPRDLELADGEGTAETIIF

Chain of human vasopressin V1a receptor (P37288 whole entry): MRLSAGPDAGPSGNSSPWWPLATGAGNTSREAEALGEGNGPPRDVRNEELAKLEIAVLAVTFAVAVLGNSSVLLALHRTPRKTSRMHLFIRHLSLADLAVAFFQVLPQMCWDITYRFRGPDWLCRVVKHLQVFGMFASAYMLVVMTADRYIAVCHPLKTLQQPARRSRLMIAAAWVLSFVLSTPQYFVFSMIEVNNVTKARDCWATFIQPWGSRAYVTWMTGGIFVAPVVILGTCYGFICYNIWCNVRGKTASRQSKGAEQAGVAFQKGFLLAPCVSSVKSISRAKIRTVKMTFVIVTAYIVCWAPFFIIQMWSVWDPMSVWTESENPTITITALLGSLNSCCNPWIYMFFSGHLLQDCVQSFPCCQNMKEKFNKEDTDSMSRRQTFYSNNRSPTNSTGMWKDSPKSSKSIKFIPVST

Row | Ki(h-V1a)/Ki(h-V1b) [1] | Ki [2] | Compound
1 | +++ (>75) | 1 to 10 nM | CC(C)NC(=O)Cn1c(-c2cccc(Cl)c2)nc2ccc([C@H]3C[C@@H](CN4CCCOCC4)C3)cc2c1=O [Example 25, cis-2-[2-(3-Chlorophenyl)-6-[3-(1,4-oxazepan-4-ylmethyl)cyclobutyl]-4-oxo-quinazolin-3-yl]-N-isopropyl-acetamide]
2 | +++ (>75) | < 1 nM | CC(C)(C)NC(=O)Cn1c(-c2cccc(Cl)c2)nc2ccc([C@H]3C[C@@H](CN4CCCCC4)C3)cc2c1=O [Example 26, cis-N-tert-Butyl-2-[2-(3-chlorophenyl)-4-oxo-6-[3-(1-piperidylmethyl)cyclobutyl]-quinazolin-3-yl]acetamide]
3 | +++ (>75) | 10 to 100 nM | O=C(Cn1c(-c2cccc(Cl)c2)nc2ccc([C@H]3C[C@@H](CN4CCCCC4)C3)cc2c1=O)NC1CC1 [Example 27, cis-2-[2-(3-Chlorophenyl)-4-oxo-6-[3-(1-piperidylmethyl)cyclobutyl]quinazolin-3-yl]-N-cyclopropyl-acetamide]
4 | +++ (>75) | 10 to 100 nM | CCCNC(=O)Cn1c(-c2cccc(Cl)c2)nc2ccc([C@H]3C[C@@H](CN4CCCCC4)C3)cc2c1=O [Example 28, cis-2-[2-(3-Chlorophenyl)-4-oxo-6-[3-(1-piperidylmethyl)cyclobutyl]quinazolin-3-yl]-N-propyl-acetamide]
5 | +++ (>75) | 10 to 100 nM | O=C(Cn1c(-c2cccc(Cl)c2)nc2ccc([C@H]3C[C@@H](CN4CCCCC4)C3)cc2c1=O)NCC1CC1 [Example 29, cis-2-[2-(3-Chlorophenyl)-4-oxo-6-[3-(1-piperidylmethyl)cyclobutyl]quinazolin-3-yl]-N-(cyclopropylmethyl)acetamide]
6 | +++ (>75) | 1 to 10 nM | CC(C)NC(=O)Cn1c(-c2cccc(Cl)c2)nc2ccc([C@H]3C[C@@H](CN4CCC(F)CC4)C3)cc2c1=O [Example 30, cis-2-[2-(3-Chlorophenyl)-6-[3-[(4-fluoro-1-piperidyl)methyl]cyclobutyl]-4-oxo-quinazolin-3-yl]-N-isopropyl-acetamide]
7 | +++ (>75) | 1 to 10 nM | CC(C)NC(=O)Cn1c(-c2cccc(Cl)c2)nc2ccc([C@H]3C[C@@H](CN4CC5(COC5)C4)C3)cc2c1=O [Example 31, cis-2-[2-(3-Chlorophenyl)-6-[3-(6-oxa-2-azaspiro[3.3]heptan-2-ylmethyl)cyclobutyl]-4-oxo-quinazolin-3-yl]-N-isopropyl-acetamide]
8 | +++ (>75) | 10 to 100 nM | CC(C)NC(=O)Cn1c(-c2cccc(Cl)c2)nc2ccc([C@H]3C[C@@H](CN4CCC(O)CC4)C3)cc2c1=O [Example 32, cis-2-[2-(3-Chlorophenyl)-6-[3-[(4-hydroxy-1-piperidyl)methyl]cyclobutyl]-4-oxo-quinazolin-3-yl]-N-isopropyl-acetamide]
9 | +++ (>75) | 1 to 10 nM | CC(C)NC(=O)Cn1c(-c2cccc(Cl)c2)nc2ccc([C@H]3C[C@@H](CN4CCC[C@@H](O)C4)C3)cc2c1=O [Example 33, cis-2-[2-(3-Chlorophenyl)-6-[3-[[(3R)-3-hydroxy-1-piperidyl]methyl]cyclobutyl]-4-oxo-quinazolin-3-yl]-N-isopropyl-acetamide]
10 | +++ (>75) | 1 to 10 nM | CC(C)NC(=O)Cn1c(-c2cccc(Cl)c2)nc2ccc([C@H]3C[C@@H](CN4CC[C@@H](C)C4)C3)cc2c1=O [Example 34, cis-2-[2-(3-Chlorophenyl)-6-[3-[[(3R)-3-methylpyrrolidin-1-yl]methyl]cyclobutyl]-4-oxo-quinazolin-3-yl]-N-isopropyl-acetamide]
11 | +++ (>75) | 10 to 100 nM | COC1CN(C[C@H]2C[C@@H](c3ccc4nc(-c5cccc(Cl)c5)n(CC(=O)NC(C)C)c(=O)c4c3)C2)C1 [Example 35, cis-2-[2-(3-Chlorophenyl)-6-[3-[(3-methoxyazetidin-1-yl)methyl]cyclobutyl]-4-oxo-quinazolin-3-yl]-N-isopropyl-acetamide]
12 | +++ (>75) | 1 to 10 nM | CC(C)NC(=O)Cn1c(-c2cccc(Cl)c2)nc2ccc([C@H]3C[C@@H](CN4CCC(C)(O)CC4)C3)cc2c1=O [Example 36, cis-2-[2-(3-Chlorophenyl)-6-[3-[(4-hydroxy-4-methyl-1-piperidyl)methyl]cyclobutyl]-4-oxo-quinazolin-3-yl]-N-isopropyl-acetamide]
13 | +++ (>75) | 1 to 10 nM | CC(C)NC(=O)Cn1c(-c2cccc(Cl)c2)nc2ccc([C@H]3C[C@@H](CN4CCC[C@H](O)C4)C3)cc2c1=O [Example 37, cis-2-[2-(3-Chlorophenyl)-6-[3-[ [(3S)-3-hydroxy-1-piperidyl]methyl]cyclobutyl]-4-oxo-quinazolin-3-yl]-N-isopropyl-acetamide]
14 | +++ (>75) | 1 to 10 nM | CC(C)NC(=O)Cn1c(-c2cccc(Cl)c2)nc2ccc([C@H]3C[C@@H](CN4CCC(C(F)(F)F)CC4)C3)cc2c1=O [Example 38, cis-2-[2-(3-Chlorophenyl)-4-oxo-6-[3-[[4-(trifluoromethyl)-1-piperidyl]methyl]cyclobutyl]quinazolin-3-yl]-N-isopropyl-acetamide]
15 | +++ (>75) | 1 to 10 nM | CC(C)NC(=O)Cn1c(-c2cccc(Cl)c2)nc2ccc([C@H]3C[C@@H](CN4CC5(CCOCC5)C4)C3)cc2c1=O [Example 41, cis-2-[2-(3-Chlorophenyl)-6-[3-(7-oxa-2-azaspiro[3.5]nonan-2-ylmethyl)cyclobutyl]-4-oxo-quinazolin-3-yl]-N-isopropyl-acetamide]
16 | +++ (>75) | 1 to 10 nM | CC(C)NC(=O)Cn1c(-c2cccc(Cl)c2)nc2ccc([C@H]3C[C@@H](CN4C[C@@H](C)O[C@@H](C)C4)C3)cc2c1=O [Example 42, cis-2-[2-(3-Chlorophenyl)-6-[3-[[(2S,6R)-2,6-dimethylmorpholin-4-yl]methyl]cyclobutyl]-4-oxo-quinazolin-3-yl]-N-isopropyl-acetamide]
17 | +++ (>75) | 1 to 10 nM | CC(C)NC(=O)Cn1c(-c2cccc(Cl)c2)nc2ccc([C@H]3C[C@@H](CN4CCOC[C@H]4C)C3)cc2c1=O [Example 44, cis-2-[2-(3-Chlorophenyl)-6-[3-[[(3R)-3-methylmorpholin-4-yl]methyl]cyclobutyl]-4-oxo-quinazolin-3-yl]-N-isopropyl-acetamide]
18 | +++ (>75) | 1 to 10 nM | C[C@H](NC(=O)Cn1c(-c2cccc(Cl)c2)nc2ccc([C@H]3C[C@@H](CN4CCCCC4)C3)cc2c1=O)C(F)(F)F [Example 45]
19 | ++ (25-75) | 10 to 100 nM | C[C@@H](NC(=O)Cn1c(-c2cccc(Cl)c2)nc2ccc([C@H]3C[C@@H](CN4CCCCC4)C3)cc2c1=O)C(F)(F)F [Example 46]
